# Measured values as given in US7566805B2, “Modafinil compositions” (priority 2003, dated 2009).
# Like-named read-outs stand apart in the source and are kept apart here.
# Legend:
# [1] = Racemic modafinil:malonic acid co-crystal pharmacokinetic study in dogs (vs micronized pure modafinil); format: in vivo
# Description: As a reference, micronized modafinil with a median particle size of about 2 micrometers was also administered in the study.
# [2] = Dog pharmacokinetic study of a single intravenous dose of R-(−)-modafinil vs racemic modafinil; format: in vivo; details: dogs; for AUC(0-inf) / Cmax / Vd / clearance / half-life: dog, plasma, 5 mg/kg IV, Mean
# Source text: A dog pharmacokinetic study (N=6) of a single intravenous dose of R-(−)-modafinil was completed. The purity of the R-(−)-modafinil in the administered formulation was ca 80 percent. This formulation was compared to a formulation of racemic modafinil, also administered by the intravenous route to the same dogs in a crossover design. Ir. Table VII, “Cmax” is the maximum blood plasma concentration, “AUC (inf)” is the extrapolated area under the curve, “t1/2” is the amount of time for the blood plasma level to decrease to half of the Cmax level beginning at administration, “Vd” is the volume of distribution, and “CL” is the clearance rate of modafinil.
# [3] = dogs, 30 mg/kg oral dose, plasma 2 to 9 hours post-dose, cited from earlier work; for Mean AUC (sulfone): sulfone metabolite
# [4] = cited from earlier work
# [5] = cited from earlier work; remark: listed apart in the source
# [6] = Solid-state stability of modafinil:malonic acid co-crystal at various temperatures and relative humidities; format: physicochemical; details: for degradation / degradation per day: four week period
# Description: At 60 degrees C., about 0.14 percent degradation per day was determined based on a simple exponential model. At 80 degrees C., about 8 percent degradation per day was determined.
# FIGS. 49 and 50 show the % area impurities as measured via HPLC versus time (weeks) for samples stored at various conditions including: 25 degrees C., 60% RH; 40 degrees C., 75 percent RH; 40 degrees C., ambient RH; 60 degrees C., ambient RH; 80 degrees C., ambient RH; and −20 degrees C.
# [7] = Dynamic vapor sorption isotherm; format: physicochemical; details: up to at least 40 percent RH at 26 degrees C.
# [8] = Pharmacokinetic study with dogs: modafinil:malonic acid formulated with lactose vs PROVIGIL tablets; format: in vivo
# Source text: In Table VI, “Cmax” is the maximum blood plasma concentration, “AUC (inf)” is the extrapolated area under the curve, “t1/2” is the amount of time for the blood plasma level to decrease to half of the Cmax level beginning at administration, “Tmax” is the time to maximum blood plasma concentration from administration, “CL” is the clearance rate of modafinil, and “F %” is the percent bioavailability.
# [9] = In vitro dissolution in simulated gastric fluid (SGF) and simulated intestinal fluid (SIF); details: micronized, blended with lactose, HPMC capsules
# Source text: Further aqueous solubility can be measured in simulated gastric fluid (SGF) or simulated intestinal fluid (SIF) rather than water.
# Both samples were blended with lactose and filled into HPMC capsules.
# [10] = second value listed in the cell
Compound,pKa Values ([5]; first value listed in the cell),"pKa Values [5, 10]",further results
"NC(=O)C[S+]([O-])C(c1ccccc1)c1ccccc1 (racemic) [Racemic Modafinil, (±)-2-[(Diphenylmethyl)sulfinyl]acetamide]",,,"half-life ([1]; dog, in vivo): 2.1 ± 0.7 h; Cmax ([1]; dog, in vivo, median particle size 2 micrometers (pure modafinil), 16 micrometers (co-crystal)): 11000 ± 5900 ng/mL; Tmax ([1]; dog, in vivo, read-out: Tmax): 1.3 ± 0.6 h; AUC(0-inf) [2]: 15100 ng·h/mL; Cmax [2]: 8680 ng/mL; Vd [2]: 0.589 L/kg; clearance [2]: 5.68 mL/min/kg; half-life [2]: 1.05 h; Mean AUC (racemate) [3]: 46760 ± 6950 ng·h/mL; Mean AUC (sulfone) [3]: 35120 ± 6930 ng·h/mL; solubility in water [4]: practically insoluble"
Nc1ccc(C(=O)O)cc1 [4-aminobenzoic acid],4.7,,
Nc1ccncc1 [4-aminopyridine],10,,
CCOc1ccc(NC(N)=O)cc1 [4-ethoxyphenyl urea],~7-9,,
Nc1ncnc2nc[nH]c12 [Adenine],3.8,,
Oc1ncnc2[nH]ncc12 [Allopurinaol],10.2,,
N=C(N)NCCC[C@H](N)C(=O)O [Arginine],2.18,9.09,
NC(=O)C[C@H](N)C(=O)O [Asparagine],2.02,8.5,
CC1(C(=O)O)CCC(C(=O)O)C1(C)C (stereo not drawn) [Camphoric acid],,5.83,
N[C@@H](CS)C(=O)O [Cysteine],1.71,8.33,pKa Values ([5]; third value listed in the cell): 10.78
CN(C)CC(=O)O [Dimethylglycine],2.5,,
"NC(=O)C[S@+]([O-])C(c1ccccc1)c1ccccc1 [Example 40-983, S-(+)-2-[(Diphenylmethyl)sulfinyl]acetamide]",,,Mean AUC (racemate) [3]: 50940 ± 8770 ng·h/mL; Mean AUC (sulfone) [3]: 83120 ± 21660 ng·h/mL
O=C(O)[C@@H](O)[C@H](O)[C@H](O)[C@@H](O)C(=O)O [Galactaric acid],,3.63,
NC1[C@H](O)OC(CO)[C@@H](O)[C@H]1O (stereo partly drawn) [Glucosamine],6.91,,
O=C(O)CCCC(=O)O [Glutaric acid],2.7,4.5,
CC[C@H](C)[C@H](N)C(=O)O [Isoleucine],2.32,9.76,
O=C(O)[C@H](O)[C@@H](O)[C@H](O[C@@H]1O[C@H](CO)[C@H](O)[C@H](O)[C@H]1O)[C@H](O)CO [Lactobionic acid],3.2,,
CCCCCCCCCCCC(=O)O [Lauric acid],~4.5,,

Compound,pKa Values ([5]; first value listed in the cell),"pKa Values [5, 10]",further results
NC(=O)c1cccnc1 [Nicotinamide],3.3,,
O=C(O)c1cc(=O)[nH]c(=O)[nH]1 [Orotic acid],5.85,8.95,
CCCCCCCCCCCCCCCC(=O)O [Palmitic acid],4.9,,
N[C@@H](Cc1ccccc1)C(=O)O [Phenylalanine],~2,~9,
Cc1ncc(CO)c(CN)c1O [Pyridoxamine],~9,,
Cc1ncc(CO)c(CO)c1O [Pyridoxine],~9,,
"NC(=O)C[S@@+]([O-])C(c1ccccc1)c1ccccc1 [R-(−)-modafinil, R-(−)-2-[(Diphenylmethyl)sulfinyl]acetamide]",,,AUC(0-inf) [2]: 15900 ng·h/mL; Cmax [2]: 7810 ng/mL; Vd [2]: 0.647 L/kg; clearance [2]: 5.67 mL/min/kg; half-life [2]: 1.53 h; difference in pharmacokinetics vs racemic modafinil ([2]; intravenous administration): no significant difference; Mean AUC (racemate) [3]: 97220 ± 12580 ng·h/mL; Mean AUC (sulfone) [3]: 8690 ± 1220 ng·h/mL
"Nc1ccc(C(=O)O)c(O)c1 [Salicylic acid, 4-amino]",3.25,10,pKa Values ([5]; third value listed in the cell): 3.5
C[C@@H](O)[C@H](N)C(=O)O [Threonine],2.15,9.12,
N[C@@H](Cc1c[nH]c2ccccc12)C(=O)O [Tryptophan],,9.39,
CC(C)[C@H](N)C(=O)O [Valine],~4.5,~9,
Cc1cc(N)c2ccccc2c1O [Vitamin K5],~9,,melting point: 280 to 282 °C (dec.)
OC[C@@H](O)[C@H](O)[C@@H](O)CO [Xylitol],~9,,
Acetohydroxamic acid,8.7,,
Imidazole,6.92,,
Racemic Modafinil:Malonic Acid Co-crystal [Modafinil: malonic acid co-crystal],,,"AUC higher than that of the pure modafinil [1]: 40 to 60%; Tmax [1]: 1.7 ± 0.6 h; degradation ([6]; 20 degrees C.): No degradation; degradation ([6]; 40 degrees C.): No degradation; degradation per day ([6]; 60 degrees C., simple exponential model): about 0.14 percent degradation per day; degradation per day ([6]; 80 degrees C.): about 8 percent degradation per day; stability on storage (% area impurities via HPLC) ([6]; stored at or below 40 degrees C. for at least 26 weeks): stable; water adsorption (DVS) [7]: no appreciable water adsorption; CL ([8]; 200 mg modafinil, Mean): 368.33; Tmax ([8]; 200 mg modafinil, Mean): 2 h; AUC (inf) ([8]; 200 mg modafinil, Mean, extrapolated, in ng·h/mL): 50545.00; Cmax ([8]; 200 mg modafinil, Mean, in ng/mL): 11246.67; F % ([8]; 200 mg modafinil, Mean, percent bioavailability): 81.57%; Cmax compared with PROVIGIL tablets ([8]; FIG. 56): increased; release of modafinil into solution vs free form of modafinil ([9]; SGF): more quickly; release of modafinil into solution vs free form of modafinil ([9]; SIF): more quickly"
Urea,~8,,
